Experiments:
thermal nociception [1] = assay: Hot plate test after i.c.v. injection; format: in vivo, mice; settings: i.c.v. 1, 5 and 10 µg/mouse; 15-90 min
Protocol: (§1) In vivo nociception tests
(§2) Male CD-1 mice (Harlan, Italy) weighting 25-30 g were used for all experiments. Mice were housed for at least 1 week before the experimental sessions in colony cages (7 mice in each cage) under standard light (from 7.00 a.m. to 7.00 p.m.), temperature (21±1°C), relative humidity (60±10%) with food and water available ad libitum. The research protocol was approved by the Service for Biotechnology and Animal Welfare of the Istituto Superiore di Sanità and authorized by the Italian Ministry of Health, according to Legislative Decree 26/14, which implemented the European Directive 2010/63/UE on laboratory animal protection in Italy. […]
(§3) In the case of hot plate test, the thermal nociception was assessed with a commercially available apparatus consisting in a metal plate 25x25 cm (Ugo Basile, Italy) heated to a constant temperature of 55±0.1°C, on which a plastic cylinder (20 cm diameter, 18 cm high) was placed. The time of latency (s) was recorded from the moment the animal was inserted inside the cylinder up to when it licked its paws or jerked them off the hot plate; jumped off the hot plate; the latency exceeded the cut-off time of 60 s. The baseline was calculated as mean of three readings recorded before testing at intervals of 15-30 min. The time course of latency was then determined at 15, 30, 45, 60, and 90 min after treatment. […]

thermal nociception [2] = assay: Tail flick test after i.c.v. injection; format: in vivo, mice; settings: i.c.v. 1, 5 and 10 µg/mouse; 15-90 min
Protocol: as §1, §2, §3

`Cc1c(C(=O)NC2CCN(C(=O)[C@H](Cc3ccccc3)NC(=O)CNC(=O)[C@@H](C)NC(=O)[C@@H](N)Cc3ccc(O)cc3)CC2)nn(-c2ccc(Cl)cc2Cl)c1-n1cccc1` [Compound 9] was tested, and the “behavioral response to thermal nociceptive stimuli, hot plate test” value (thermal nociception [1]) was “no difference in treatments” and the “latency of the nociceptive response, tail flick test” value (thermal nociception [2]) was “absence of effect”.

Reference: publication PMC6009935 (Journal of Enzyme Inhibition and Medicinal Chemistry, 2017)
